Experimental data taken from publication PMC8703823, “The Role of TRPA1 Channels in the Central Processing of Odours Contributing to the Behavioural Responses of Mice” (Pharmaceuticals, 2021).

What was measured:
hTRPA1 = biological target: T1, hTRPA1 (Homo sapiens, UniProt O75762); experiment: Fluo-4 AM calcium influx, flow cytometry, CHO cells; type: cell-based
T1 construct: gene TRPA1; stably overexpressed in CHO cells

mTRPA1 = biological target: T2, mTRPA1 (Mus musculus, UniProt Q8BLA8); experiment: as above; type: cell-based
T2 construct: gene Trpa1; stably overexpressed in CHO cells
T2 sequence (Q8BLA8 whole entry): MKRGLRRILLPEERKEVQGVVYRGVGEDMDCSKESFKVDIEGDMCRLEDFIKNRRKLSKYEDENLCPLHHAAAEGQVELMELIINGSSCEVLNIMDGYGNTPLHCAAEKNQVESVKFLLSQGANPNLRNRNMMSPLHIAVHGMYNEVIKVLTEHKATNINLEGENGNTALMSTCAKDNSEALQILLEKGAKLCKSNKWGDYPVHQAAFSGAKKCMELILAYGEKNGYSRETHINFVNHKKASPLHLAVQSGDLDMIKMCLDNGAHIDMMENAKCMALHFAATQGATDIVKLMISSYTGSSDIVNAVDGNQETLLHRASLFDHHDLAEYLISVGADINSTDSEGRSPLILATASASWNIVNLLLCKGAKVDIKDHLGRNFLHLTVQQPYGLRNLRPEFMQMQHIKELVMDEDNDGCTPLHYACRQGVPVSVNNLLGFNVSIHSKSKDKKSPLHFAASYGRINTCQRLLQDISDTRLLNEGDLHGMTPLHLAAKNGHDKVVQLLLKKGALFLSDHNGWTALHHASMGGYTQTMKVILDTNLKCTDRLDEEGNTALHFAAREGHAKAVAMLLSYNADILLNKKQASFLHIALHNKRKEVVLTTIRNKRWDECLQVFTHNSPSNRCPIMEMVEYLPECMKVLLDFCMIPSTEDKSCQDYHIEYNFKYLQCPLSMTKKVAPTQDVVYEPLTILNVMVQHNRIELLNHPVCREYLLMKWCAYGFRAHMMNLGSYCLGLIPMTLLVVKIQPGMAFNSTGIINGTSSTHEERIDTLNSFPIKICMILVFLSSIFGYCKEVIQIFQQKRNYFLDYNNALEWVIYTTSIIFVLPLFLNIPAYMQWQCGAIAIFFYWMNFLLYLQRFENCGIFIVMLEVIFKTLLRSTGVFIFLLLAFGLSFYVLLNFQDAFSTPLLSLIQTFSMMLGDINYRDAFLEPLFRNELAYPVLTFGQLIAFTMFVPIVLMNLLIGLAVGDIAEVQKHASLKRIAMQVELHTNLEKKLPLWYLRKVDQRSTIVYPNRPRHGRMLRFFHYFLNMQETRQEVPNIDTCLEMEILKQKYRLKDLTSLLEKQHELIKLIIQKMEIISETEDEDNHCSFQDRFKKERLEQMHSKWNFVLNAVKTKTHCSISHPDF

T1 sequence (O75762 whole entry): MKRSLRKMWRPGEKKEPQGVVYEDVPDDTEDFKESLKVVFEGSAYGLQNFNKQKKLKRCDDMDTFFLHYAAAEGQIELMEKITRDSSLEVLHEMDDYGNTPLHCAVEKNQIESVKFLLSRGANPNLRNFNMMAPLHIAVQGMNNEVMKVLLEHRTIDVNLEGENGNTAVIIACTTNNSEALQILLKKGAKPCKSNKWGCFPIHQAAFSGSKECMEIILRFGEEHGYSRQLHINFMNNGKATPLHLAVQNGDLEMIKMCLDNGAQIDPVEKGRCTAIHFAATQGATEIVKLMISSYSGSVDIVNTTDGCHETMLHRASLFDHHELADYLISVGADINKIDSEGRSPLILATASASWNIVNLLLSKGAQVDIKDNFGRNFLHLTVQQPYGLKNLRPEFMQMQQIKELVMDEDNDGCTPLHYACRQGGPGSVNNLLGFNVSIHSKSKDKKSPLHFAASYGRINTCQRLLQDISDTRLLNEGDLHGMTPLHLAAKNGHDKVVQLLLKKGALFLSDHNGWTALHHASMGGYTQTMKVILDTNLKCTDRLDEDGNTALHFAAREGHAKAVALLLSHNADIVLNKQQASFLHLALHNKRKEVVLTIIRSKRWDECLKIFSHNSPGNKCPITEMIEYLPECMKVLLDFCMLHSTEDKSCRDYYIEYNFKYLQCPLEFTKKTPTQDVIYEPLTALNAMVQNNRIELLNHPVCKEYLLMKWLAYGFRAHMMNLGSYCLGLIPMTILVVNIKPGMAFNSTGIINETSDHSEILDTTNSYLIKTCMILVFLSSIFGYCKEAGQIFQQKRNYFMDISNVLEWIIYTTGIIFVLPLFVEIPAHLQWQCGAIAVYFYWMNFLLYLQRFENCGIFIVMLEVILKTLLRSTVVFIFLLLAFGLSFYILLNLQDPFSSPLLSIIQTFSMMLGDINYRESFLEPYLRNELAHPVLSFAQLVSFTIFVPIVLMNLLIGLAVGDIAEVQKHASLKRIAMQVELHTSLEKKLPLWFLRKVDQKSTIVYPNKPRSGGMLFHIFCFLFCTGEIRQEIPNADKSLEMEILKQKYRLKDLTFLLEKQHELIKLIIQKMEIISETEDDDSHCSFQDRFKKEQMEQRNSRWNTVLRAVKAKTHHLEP

CC1=NCCS1 [2-MT, 2-methyl-2-thiazoline]
EC50 (hTRPA1): 5.01 mM | EC50 (mTRPA1): 4.42 mM
